Data reported in US20240360107A1, “AN EIF4A INHIBITOR WITH A NOVEL MECHANISM OF ACTION” (ARIZONA BOARD OF REGENTS ON BEHALF OF THE UNIVERSITY OF …, priority 2021, published 2024).
“Also recorded” adds a separate entry of the source.

Assays:
eIF4A [1] = molecular target: T1, eIF4A (Homo sapiens, UniProt P60842); experiment: FAM-RNA fluorescence polarization assay; type: binding; set-up: 6xHis with TEV protease site (N, cleaved yes); made in house; host or cells: E. coli BL21-CodonPlus; settings: FAM-A(CAA)5 RNA; for IC50: 2 μM eIF4A, read-out: IC50, FAM-RNA FP assay
Description: Next, an FP assay was performed with a fluorescent, eIF4A-binding RNA oligo (FAM-A(CAA)5) as the fluorophore. […] This same assay was used to investigate if changing the identity of the RNA fluorophore affected the ability of compound 28 to compete the RNA off eIF4A. […] This is evidence that compound 28 inhibits the RNA-eIF4A interaction by binding eIF4A and not the RNA.
FAM-RNA fluorescence polarization assay. Oligos were purchased from Integrated DNA Technologies using RNase free preparations. Recombinant eIF4A (2 μM) was incubated with 25 nM FAM-labelled RNA for 30 min in FP Buffer (15 mM HEPES-NaOH (pH 8), 100 mM NaCl, 1 mM MgCl2, 15% glycerol, 2 mM DTT, 2 mM AMPPNP) at 22° C. in low-volume black 384 well plates (Greiner). eIF4A was incubated with compound for 20 min prior to the addition of FAM-RNA. Plate was incubated for another 30 min before fluorescence polarization was read at 485:535 nm (Ex:Em) on a SpectraMax iD5 plate reader (Molecular Devices. IC50 values were calculated using GraphPad Prism v6.0.

[2] = system: BJAB Burkitt lymphoma cells; experiment: CellTiter-Glo Luminescent Cell Viability assay; type: cell-based; settings: 72 h; for effect on BJAB cell viability: top concentration 10 uM
Description: Compounds 1 and compound 28 were evaluated in a CellTiter-Glo (CTG) Luminescence cell viability assay in BJAB Burkitt lymphoma cells that are known to be sensitive to eIF4A inhibition. This assay quantitates the number of living, metabolically active cells by measuring their ATP levels.
Cell viability assay. BJAB lymphoma cells were plated in quadruplicate at 5,000 cells/well in serial dilutions of drug ranging two logs with the top concentration of compounds tested at 10 uM. Viability was measured after 72 h using Cell Titer Glo (Promega G7573) following the manufacturer's protocol. Luminescence was detected on the BioTek HT Synergy plate reader and values were normalized to vehicle-treated (DMSO) wells. Silvestrol was included as a positive control (not shown).

eIF4A [3] = molecular target: T1, eIF4A; experiment: Helicase (duplex unwinding) assay; type: biochemical; set-up: 6xHis with TEV protease site (N, cleaved yes); made in house; host or cells: E. coli BL21-CodonPlus; settings: Cy3-RNA/DNA duplex, 2.5 μM eIF4A, 2 mM ATP
Description: A functional duplex unwinding assay with a duplex nucleic acid substrate was utilized to test if compound 1 and compound 28 could inhibit eIF4A helicase activity. This unwinding assay features a Cy3-labeled RNA strand annealed to a DNA strand with a long overhang that eIF4A can bind (FIG. 9, top right). When ATP is added to protein and substrate, eIF4A unwinds the duplex, leaving an unlabeled DNA strand and a Cy3-labeled single stranded RNA. When visualized on a native gel, the larger intact fluorescent duplex substrate will run higher on the gel than the smaller unwound single-stranded fluorescent RNA. The ratio of these two Cy3 signals can be used to determine the helicase activity of eIF4A in each condition.
Dose responses of compound 1 and compound 28 were conducted using this assay. […] The intensity of each band in each gel lane was quantified by densitometry to obtain IC50 values for compound 1 and compound 28 in this assay. […]
Helicase assay. […] All products were analyzed by electrophoresis on 20% native polyacrylamide (37.5:1 acrylamide:bisacrylamide) gels. Gels were run at 4° C. for 2 hours and Cy3 signal was detected on an Azure 600 Fluorescent Imaging System (Azure Biosystems) at 524 nm:572 nm (Ex:Em). Cy3 signal was quantified by gel band densitometry performed using ImageJ32 (NIH). IC50 values were calculated using GraphPad Prism v6.0.

T1 sequence (P60842 whole entry): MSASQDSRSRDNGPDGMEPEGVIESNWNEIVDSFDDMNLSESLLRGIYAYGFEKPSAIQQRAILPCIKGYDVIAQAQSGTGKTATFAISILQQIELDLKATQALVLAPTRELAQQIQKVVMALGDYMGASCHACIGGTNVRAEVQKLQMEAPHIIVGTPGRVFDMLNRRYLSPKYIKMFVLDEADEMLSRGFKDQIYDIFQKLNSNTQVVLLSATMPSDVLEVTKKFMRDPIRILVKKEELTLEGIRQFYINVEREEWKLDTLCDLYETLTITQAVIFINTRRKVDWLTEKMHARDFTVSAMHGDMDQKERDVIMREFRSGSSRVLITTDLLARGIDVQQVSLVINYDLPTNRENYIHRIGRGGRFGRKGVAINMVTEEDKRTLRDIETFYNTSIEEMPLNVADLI

EC50 ([2]; Homo sapiens, CellTiter-Glo, n=4) | SMILES | competition of fluorescent RNA off eIF4A (eIF4A [1]) | IC50 (eIF4A [1]) | effect on BJAB cell viability [2] | inhibition of eIF4A duplex unwinding (eIF4A [3])
2.13 ± 0.17 µM | CCCCc1ccc(-c2ccc(-c3cc(C(=O)O)c4cc(Br)ccc4n3)o2)cc1 [Compound 1, 6-bromo-2-(5-(4-butylphenyl)furan-2-yl)quinoline-4-carboxylic acid] | able to compete the fluorescent RNA off of eIF4A | 161 ± 9.8 µM | decrease BJAB cell viability | inhibit eIF4A duplex unwinding
 | CCCCc1ccc(-c2ccc(-c3cc(C(=O)O)c4cc([N+](=O)[O-])ccc4n3)o2)cc1 [Compound 28, 2-(5-(4-butylphenyl)furan-2-yl)-6-nitroquinoline-4-carboxylic acid] | able to compete the fluorescent RNA off of eIF4A; also recorded: about three-fold more potent than 1 | 58.3 ± 2.5 µM | three to four times more potent than 1; also recorded: decrease BJAB cell viability | about four-fold more potent than compound 1; also recorded: inhibit eIF4A duplex unwinding
